{"source": "ChEMBL document CHEMBL1201862", "about": "“PubChem BioAssay data set” (2004)", "key": {"Protein Tat": {"biological_target": "T1, Protein Tat (Human immunodeficiency virus type 1 group M subtype B (isolate HXB2)(HIV-1), UniProt P04608)", "T1 sequence (P04608 whole entry)": "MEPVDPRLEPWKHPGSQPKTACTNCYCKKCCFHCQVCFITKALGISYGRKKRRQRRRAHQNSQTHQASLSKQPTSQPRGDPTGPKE", "type": "functional"}, "[1]": {"biological_target": "Arf-GAP with SH3 domain, ANK repeat and PH domain-containing protein 1 (Homo sapiens, UniProt Q9ULH1)", "sequence (Q9ULH1 whole entry, the tested form may be a part)": "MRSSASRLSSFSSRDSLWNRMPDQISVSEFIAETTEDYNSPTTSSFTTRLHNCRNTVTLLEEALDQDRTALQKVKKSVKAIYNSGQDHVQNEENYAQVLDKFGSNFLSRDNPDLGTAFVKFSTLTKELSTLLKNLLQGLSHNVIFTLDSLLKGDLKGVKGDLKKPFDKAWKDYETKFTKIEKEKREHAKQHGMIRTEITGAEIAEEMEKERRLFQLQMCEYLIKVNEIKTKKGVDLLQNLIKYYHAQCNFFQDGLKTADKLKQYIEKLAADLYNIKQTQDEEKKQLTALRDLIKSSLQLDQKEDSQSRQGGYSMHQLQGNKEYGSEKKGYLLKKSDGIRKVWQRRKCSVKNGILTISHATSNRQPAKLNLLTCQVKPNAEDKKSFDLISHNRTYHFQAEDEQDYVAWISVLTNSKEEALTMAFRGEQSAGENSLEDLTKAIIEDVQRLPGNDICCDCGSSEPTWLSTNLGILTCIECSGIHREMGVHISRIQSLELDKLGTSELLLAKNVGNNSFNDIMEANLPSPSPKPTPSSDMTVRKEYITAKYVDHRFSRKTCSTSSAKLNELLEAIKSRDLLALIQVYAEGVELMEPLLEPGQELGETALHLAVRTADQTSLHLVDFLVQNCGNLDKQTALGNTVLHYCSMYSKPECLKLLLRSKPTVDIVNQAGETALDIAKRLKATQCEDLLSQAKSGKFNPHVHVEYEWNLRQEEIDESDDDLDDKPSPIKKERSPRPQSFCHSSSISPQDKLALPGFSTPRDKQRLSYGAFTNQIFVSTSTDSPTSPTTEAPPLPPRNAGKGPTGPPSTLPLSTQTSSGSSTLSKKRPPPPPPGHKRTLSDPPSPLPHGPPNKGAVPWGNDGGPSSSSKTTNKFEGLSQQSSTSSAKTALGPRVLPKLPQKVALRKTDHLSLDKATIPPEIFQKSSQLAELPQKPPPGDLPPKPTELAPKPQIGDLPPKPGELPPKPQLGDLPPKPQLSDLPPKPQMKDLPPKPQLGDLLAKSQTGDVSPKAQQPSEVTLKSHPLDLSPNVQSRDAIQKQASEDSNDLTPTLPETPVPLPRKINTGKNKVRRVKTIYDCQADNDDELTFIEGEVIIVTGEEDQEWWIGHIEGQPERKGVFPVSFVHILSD", "type": "functional"}, "Beta-galactosidase": {"biological_target": "Beta-galactosidase (Escherichia coli, UniProt Q8VNN2)", "sequence (Q8VNN2 whole entry)": "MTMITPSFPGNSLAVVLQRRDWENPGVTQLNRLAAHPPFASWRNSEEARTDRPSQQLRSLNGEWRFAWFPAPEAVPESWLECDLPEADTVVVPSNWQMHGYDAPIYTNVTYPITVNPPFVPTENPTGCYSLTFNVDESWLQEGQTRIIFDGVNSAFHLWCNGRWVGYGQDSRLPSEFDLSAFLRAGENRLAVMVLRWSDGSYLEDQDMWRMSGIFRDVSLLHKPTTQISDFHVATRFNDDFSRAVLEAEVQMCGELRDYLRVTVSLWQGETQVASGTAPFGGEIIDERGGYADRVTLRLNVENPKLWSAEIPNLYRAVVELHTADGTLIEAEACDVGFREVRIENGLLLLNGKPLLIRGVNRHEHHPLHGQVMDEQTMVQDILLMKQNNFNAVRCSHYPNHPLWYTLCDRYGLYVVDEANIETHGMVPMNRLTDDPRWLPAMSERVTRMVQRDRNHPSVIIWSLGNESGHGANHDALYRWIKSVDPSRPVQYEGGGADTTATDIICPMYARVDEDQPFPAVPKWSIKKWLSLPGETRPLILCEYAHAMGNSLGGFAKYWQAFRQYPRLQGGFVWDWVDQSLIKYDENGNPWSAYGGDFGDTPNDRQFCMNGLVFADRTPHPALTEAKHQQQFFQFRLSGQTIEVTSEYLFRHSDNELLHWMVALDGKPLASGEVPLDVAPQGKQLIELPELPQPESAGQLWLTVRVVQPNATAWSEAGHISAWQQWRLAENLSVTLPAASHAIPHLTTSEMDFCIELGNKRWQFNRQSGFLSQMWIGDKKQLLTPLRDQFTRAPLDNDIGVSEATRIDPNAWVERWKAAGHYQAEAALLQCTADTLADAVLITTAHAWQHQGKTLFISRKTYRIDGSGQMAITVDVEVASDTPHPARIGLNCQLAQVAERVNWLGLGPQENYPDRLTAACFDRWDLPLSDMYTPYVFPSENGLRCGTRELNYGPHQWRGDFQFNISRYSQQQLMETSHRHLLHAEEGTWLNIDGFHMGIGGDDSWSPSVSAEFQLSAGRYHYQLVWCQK", "assay": "Dose response counterscreen for EBI2 assay utilizing the enzyme, b-galactosidase.", "type": "functional"}, "[2]": {"assay": "HEK293 cell cytotoxicity, dose response, cytotoxicity control, plate reader, cherry-picked samples (AID 743446)", "type": "functional, cell-based"}, "[3]": {"assay": "CEM21 lymphoblast cell cytotoxicity, dose response, cytotoxicity control for viral fusion inhibitor project, CellTiter-Glo luminescence, cherry-picked (AID 652042);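 note: potency for signal decrease meaning cytotoxicity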", "type": "functional, cell-based"}, "[4]": {"assay": "off-target signal loss in HeLa-CEM21 co-culture – HeLa F-luc CTL cells, cherry-picked, counter-screen for HIV-1 Env fusion inhibitor project, dose response (AID 652040);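 note: potency for signal decrease marking cytotoxic or nonspecific inhibition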", "type": "functional, cell-based"}, "[5]": {"assay": "ZM109 Env clade C HIV-1 fusion inhibitors, dose response, HeLa effector, CEM target cells, luciferase, cherry-pick (AID 652058)", "type": "functional, cell-based"}, "[6]": {"assay": "HepG2 cell cytotoxicity, dose response, cytotoxicity control, plate reader, cherry-pick, antagonist series (AID 743416)", "type": "functional, cell-based"}, "[7]": {"assay": "LGR2 antagonists, dose response, cell-based, HEK293, CRE-luciferase reporter, cherry pick, set 2 (AID 743343);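 note: transfected cells were stimulated with diluted bursicon conditioned medium after compound addition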", "type": "functional"}, "[8]": {"assay": "inhibitors of clade B AD8 Env fusion, dose response, cell-based, cherry-pick (AID 652062);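 note: potency is for inhibitors of fusion seen as a drop in luminescence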", "type": "functional"}, "[9]": {"assay": "MC4R antagonists, dose response, counter-screen for LGR2 antagonist project, cell-based, plate reader, cherry pick (AID 743444);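 note: transfected HEK 293 cells stimulated with alpha-MSH peptide; potency of inhibitors of the alpha-MSH evoked signal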", "type": "functional"}, "[10]": {"assay": "A549 cell cytotoxicity, dose response, cytotoxicity control, plate reader, cherry-pick, antagonist series (AID 743412)", "type": "functional, cell-based"}, "[11]": {"assay": "inhibitors of HIV Env-driven cell fusion, dose response, cherry-pick (AID 652057)", "type": "functional, cell-based"}, "[12]": {"assay": "Dose-response inhibition of insulin secretion in a rat insulinoma line at 5 mM glucose (AID 1117331)", "type": "functional, cell-based", "details": "INS-1E"}, "[13]": {"assay": "IGROV1 ovarian cancer cell cytotoxicity, dose response, PAX8 inhibitor project, plate reader, dry powder samples (AID 743043)", "type": "functional, cell-based", "details": "IGROV-1"}, "Paired box protein Pax-8": {"biological_target": "Paired box protein Pax-8 (Homo sapiens, UniProt Q06710)", "sequence (Q06710 whole entry)": "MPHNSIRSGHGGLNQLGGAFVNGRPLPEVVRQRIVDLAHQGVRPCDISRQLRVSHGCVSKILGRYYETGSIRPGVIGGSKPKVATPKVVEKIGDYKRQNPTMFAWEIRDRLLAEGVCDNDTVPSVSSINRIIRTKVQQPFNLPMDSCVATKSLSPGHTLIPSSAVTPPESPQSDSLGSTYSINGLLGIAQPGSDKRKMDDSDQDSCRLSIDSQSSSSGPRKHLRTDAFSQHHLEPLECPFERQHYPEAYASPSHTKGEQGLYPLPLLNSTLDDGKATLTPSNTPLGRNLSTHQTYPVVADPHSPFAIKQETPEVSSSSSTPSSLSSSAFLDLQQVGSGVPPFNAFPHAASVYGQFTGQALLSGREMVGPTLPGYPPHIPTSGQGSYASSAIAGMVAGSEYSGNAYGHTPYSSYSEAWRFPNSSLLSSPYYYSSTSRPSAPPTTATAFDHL", "assay": "inhibitors of PAX8-driven TPO luciferase reporter, dose response, RMG-I cells, cherry-pick (AID 687027);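 note: luciferase reporter driven by Pax8 target thyroperoxidase promoter measured by SteadyGlo luminescence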", "type": "functional, cell-based"}, "[14]": {"assay": "cytotoxicity in OVCAR8 ovarian cancer cells, dose response, PAX8 project, cell-based, plate reader, dry powder samples (AID 743197)", "type": "functional", "details": "OVCAR-8"}, "[15]": {"biological_target": "T2, RNA-binding protein pos-1 (Caenorhabditis elegans, UniProt G5EF15)", "T2 sequence (G5EF15 whole entry)": "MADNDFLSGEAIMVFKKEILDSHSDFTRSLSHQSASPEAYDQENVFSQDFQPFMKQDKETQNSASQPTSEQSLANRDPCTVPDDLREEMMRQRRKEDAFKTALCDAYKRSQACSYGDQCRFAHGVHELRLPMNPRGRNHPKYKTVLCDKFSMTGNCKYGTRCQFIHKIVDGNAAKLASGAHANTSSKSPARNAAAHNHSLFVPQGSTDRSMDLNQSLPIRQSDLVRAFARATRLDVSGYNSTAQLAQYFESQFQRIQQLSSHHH", "assay": "inhibitors of POS-1/mex-3 RNA binding, dose response, biochemical, fluorescence polarization (AID 1964);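 note: purified POS-1 fused to maltose binding protein made in E. coli; potency of compounds blocking POS-1 binding to fluorescent RNA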"}, "[16]": {"biological_target": "T3, Zinc finger protein mex-5 (Caenorhabditis elegans, UniProt Q9XUB2)", "T3 sequence (Q9XUB2 whole entry)": "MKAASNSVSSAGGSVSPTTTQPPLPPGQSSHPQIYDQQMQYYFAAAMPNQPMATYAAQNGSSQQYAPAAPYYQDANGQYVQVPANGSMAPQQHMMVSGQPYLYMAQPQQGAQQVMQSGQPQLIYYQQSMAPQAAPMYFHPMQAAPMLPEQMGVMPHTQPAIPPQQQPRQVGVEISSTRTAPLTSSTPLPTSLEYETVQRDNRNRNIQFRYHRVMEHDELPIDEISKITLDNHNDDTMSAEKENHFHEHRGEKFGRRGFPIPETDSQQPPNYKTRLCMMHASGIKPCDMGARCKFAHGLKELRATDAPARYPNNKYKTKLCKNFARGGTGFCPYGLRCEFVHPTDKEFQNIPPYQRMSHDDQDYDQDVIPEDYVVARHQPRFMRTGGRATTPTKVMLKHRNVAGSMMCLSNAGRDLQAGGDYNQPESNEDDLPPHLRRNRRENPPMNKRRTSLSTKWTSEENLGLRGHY", "assay": "MEX-5/TCR-2 RNA interaction inhibitors, dose response, biochemical, C. elegans, fluorescence polarization (AID 1960)"}, "[17]": {"biological_target": "T4, Long-chain-fatty-acid--AMP ligase FadD28 (Mycobacterium tuberculosis, UniProt P9WQ59)", "T4 sequence (P9WQ59 whole entry)": "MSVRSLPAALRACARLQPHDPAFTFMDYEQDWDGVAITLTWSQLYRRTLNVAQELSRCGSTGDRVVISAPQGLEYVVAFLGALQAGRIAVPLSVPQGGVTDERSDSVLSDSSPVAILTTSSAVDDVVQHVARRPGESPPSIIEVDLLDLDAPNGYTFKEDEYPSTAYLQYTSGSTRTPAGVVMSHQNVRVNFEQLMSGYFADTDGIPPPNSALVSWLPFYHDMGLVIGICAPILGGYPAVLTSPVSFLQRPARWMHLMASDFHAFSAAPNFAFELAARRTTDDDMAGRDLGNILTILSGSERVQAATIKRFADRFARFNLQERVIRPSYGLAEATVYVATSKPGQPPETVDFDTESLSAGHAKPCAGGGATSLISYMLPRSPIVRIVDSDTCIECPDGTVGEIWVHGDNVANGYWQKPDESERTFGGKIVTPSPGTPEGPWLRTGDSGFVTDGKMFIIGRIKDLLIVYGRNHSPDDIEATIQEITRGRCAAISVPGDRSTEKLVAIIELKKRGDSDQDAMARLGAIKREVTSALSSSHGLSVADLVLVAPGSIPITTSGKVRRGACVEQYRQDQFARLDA", "assay": "Fluorescence polarization aasay to screen for inhibitors that compete for the binding of FadD28 to a bisubstrate Measured in Biochemical System Using Plate Reader - 2147-01_Inhibitor_Dose_CherryPick_Activity.", "type": "functional, Mycobacterium tuberculosis H37Rv"}, "[18]": {"assay": "NIH:OVCAR-3 ovarian cancer cell cytotoxicity, dose response, PAX8 inhibitor project, plate reader, dry powder samples (AID 743044)", "type": "functional, cell-based"}, "[19]": {"assay": "A2780 ovarian cancer cell cytotoxicity, dose response, cytotoxicity control, plate reader, dry powder samples (AID 743046)", "type": "functional, cell-based"}}, "note": "The source made the active and inactive calls."}
{"smiles": "Cc1cc(O)cc(O)c1C(=O)Cc1cnn(-c2ccccc2)c1", "values": [{"measurement": "IC50", "setting": "Protein Tat", "result": "> 100 µM (inconclusive)"}]}
{"smiles": "COc1ccc([N+](=O)[O-])cc1NC(=O)c1ccc(-n2nc(C)cc2C)cc1", "values": [{"measurement": "IC50", "setting": "[1]", "result": "28 µM (inactive)"}]}
{"smiles": "CN1CCN(C(=O)/C=C/c2ccc(Cl)cc2)CC1", "values": [{"measurement": "IC50", "setting": "Beta-galactosidase", "result": "> 80 µM (inactive)"}]}
{"smiles": "CC(C)c1ccc(OCCCN2CCC(C(O)(c3ccccc3)c3ccccc3)CC2)cc1", "values": [{"measurement": "AC50", "setting": "[2]", "result": "14 µM (active)"}, {"measurement": "AC50", "setting": "[3]", "result": "7.21 µM (active)"}, {"measurement": "AC50", "setting": "[4]", "result": "7.88 µM (active)"}, {"measurement": "AC50", "setting": "[5]", "result": "9.88 µM (active)"}, {"measurement": "AC50", "setting": "[6]", "result": "7.6 µM (active)"}, {"measurement": "AC50", "setting": "[7]", "result": "6.8 µM (active)"}, {"measurement": "AC50", "setting": "[8]", "result": "9.48 µM (active)"}, {"measurement": "AC50", "setting": "[9]", "result": "5.65 µM (active)"}, {"measurement": "AC50", "setting": "[10]", "result": "9.56 µM (active)"}, {"measurement": "AC50", "setting": "[11]", "result": "9.63 µM (active)"}]}
{"smiles": "CN1C(=O)CC[C@H]1c1cccnc1", "note": "[COTININE]", "values": [{"measurement": "IC50", "setting": "[12]", "result": "> 33.3 µM (inactive)"}]}
{"smiles": "Cc1cccc(S(=O)(=O)N2CC[C@@H]3[C@H]2c2cc(C4=CCCCC4)ccc2N[C@@H]3CO)c1", "values": [{"measurement": "AC50", "setting": "[13]", "result": "55.6 µM (active)"}, {"measurement": "AC50", "setting": "Paired box protein Pax-8", "result": "10.8 µM (active)"}, {"measurement": "AC50", "setting": "[14]", "result": "> 70 µM (inactive)"}]}
{"smiles": "Cc1ccc(NC(=O)CN2C(=O)S/C(=C\\c3cc(C)n(-c4cccc(C(=O)O)c4)c3C)C2=O)cc1", "values": [{"measurement": "EC50", "setting": "[15]", "result": "> 300 µM (not active)"}, {"measurement": "EC50", "setting": "[16]", "result": "> 300 µM (not active)"}, {"measurement": "AC50", "setting": "[17]", "result": "2.03 µM (active)"}]}
{"smiles": "C[C@@H]1CCCCO[C@H](CN(C)Cc2ccc(C(F)(F)F)cc2)[C@H](C)CN([C@@H](C)CO)C(=O)c2cc(NC(=O)Nc3ccc4c(c3)OCO4)ccc2O1", "values": [{"measurement": "AC50", "setting": "[18]", "result": "48.7 µM (active)"}, {"measurement": "AC50", "setting": "[13]", "result": "40.9 µM (active)"}, {"measurement": "AC50", "setting": "Paired box protein Pax-8", "result": "3.34 µM (active)"}, {"measurement": "AC50", "setting": "[14]", "result": "36.8 µM (active)"}, {"measurement": "AC50", "setting": "[19]", "result": "42.2 µM (active)"}]}
{"smiles": "COc1ccc(C(=O)N/N=C/c2cccnc2)cc1", "values": [{"measurement": "IC50", "setting": "Protein Tat", "result": "> 100 µM (active)"}]}
{"smiles": "Cc1nccn1CC(=O)N/N=C/c1ccc(O)c(O)c1", "values": [{"measurement": "IC50", "setting": "Protein Tat", "result": "39 µM (inconclusive)"}]}
{"smiles": "COc1ccc(N2CCN(C(=O)c3cc4c(s3)-c3ccccc3OC4)CC2)cc1", "values": [{"measurement": "IC50", "setting": "Beta-galactosidase", "result": "> 80 µM (inactive)"}]}
